Experimental data reported in PMC4138103 (PLoS ONE, 2014).
Where two headings read alike, the source gives them in different places.

Legend:
Sprague-Dawley rats = assay: Liver p53 and DNA damage markers, Western blotting; assay type: in vivo, Rattus norvegicus; settings: for Emax: Rattus norvegicus
Procedure: Liver p53, Mdm2 and DNA damage related markers were assessed by Western blotting analysis. Proteins of the liver homogenates were quantified using Coomassie Plus Protein Assay Reagent (Pierce, Täby, Sweden). The samples were subjected to SDS-PAGE, the separated proteins were transferred to a polyvinylidene difluoride membrane (Bio-Rad, Hercules, CA, USA) and blocked in 10% non-fatty milk for 1 h. The protein bands were subsequently probed with antibodies overnight at 4°C.
The primary antibody for total p53 DO-1 was purchased from Novocastra (Newcastle, UK). Primary antibodies for DNA-damage marker were phospho-p53 (Ser-15), phospho-Chk2 (Thr-68), phospho-Mdm2 (Ser-166), phospho-Akt (Ser-473) (Cell Signaling Technology, Stockholm, Sweden) phospho-Erk (Tyr-204) (E-4) and the loading control Cdk2 (M2) (sc-7383 resp. sc-163, Santa Cruz Biotechnology, Santa Cruz, CA, USA). Secondary antibodies used were goat anti-rabbit IgG, goat anti-mouse IgG (sc-2004 resp. sc-2005, Santa Cruz Biotechnology). No signals were obtained when primary antibodies were omitted. […]. The results were visualized by the ECL or ECL plus detection kits (Amersham GE Healthcare Bio-sciences AB, Uppsala, Sweden). Cdk2 was used as a loading control.
Data were also analyzed using the BMD method, which is based on dose-response modeling of the full data set using a nested family of exponential and Hill models. The analyses were done on data of males and females combined, using sex as a covariate. […] In that case, different Critical Effect Doses (CEDs) and CEDs at the lowest bound of the confidence interval (CED-L) were generated for each sex. If no difference between sexes is detected, a CED and CED-Ls for the combined data is generated. However, this was also done if the curve fits are close, and separate analyses for males and females were then performed manually. […]

[1] = Margin of exposure calculations; design: species or system human; settings: for MoE, Liver p53 / MoE, Spontanous locomotor activity: females; for MoE, Liver retinol / MoE, Serum chlolesterol / MoE, Serum thyroxine / MoE, Serum triglycerids: males
From the text: They include values from the WHO mother's milk survey in 2001–2002 [1], [2], adipose tissue from the Finnish general population in 1997–1999 [83] and, plasma from the Baltic Sea fisherman cohort in 1997–1999 [41] and placenta from a Danish–Finnish joint prospective cohort in 1997–2001 [40]. WHO has established uncertainty factors (UF) for estimating tolerable intake levels of environmental chemicals. As rat and human tissue concentration data are used no interspecies toxicokinetic UF is needed. A toxicodynamic factor of 2.5 is applied to cover the interspecies variability and a factor of 10 to cover the inter-individual variability in humans. Thus, the UF of 25 is considered adequate for human health endpoints of NDL-PCBs.

Liver enzymes = system: Liver enzymes; design: method as in Roos et al., 2011; settings: 2011, cited from earlier work; for CED, CYP3A1 mRNA / CED-L, CYP3A1 mRNA: model E4; for CED, CYP3A1 mRNA / CED-L, CYP3A1 mRNA / CED, CYP2B1 mRNA / CED-L, CYP2B1 mRNA: adipose tissue concentration based, enzyme induction data ref Roos et al.; for CED, CYP2B1 mRNA / CED-L, CYP2B1 mRNA: model E5; for CYP2B1 mRNA, CED / CYP2B1 mRNA, CED-L / CYP3A1 mRNA, CED / CYP3A1 mRNA, CED-L: total dose based, ref Roos et al.
[2] = F, CES 5%, model E4, adipose tissue concentration based
[3] = F, CES 5%, model E5, adipose tissue concentration based
[4] = F, CES 100%, model E4, adipose tissue concentration based
[5] = F, CES 100%, model E5, adipose tissue concentration based
[6] = females, CES 5%, total dose based
[7] = females, CES 100%, adipose tissue concentration based
[8] = females, CES 100%, total dose based
[9] = females, adipose tissue concentration based
[10] = Worst case: the most exposed fisherman
[11] = human cohort Baltic Sea fishermen
[12] = human cohort General population (Finland)
[13] = human cohort Placenta (Denmark)
[14] = human cohort Placenta (Finland)

## Clc1cc(Cl)c(-c2cc(Cl)c(Cl)c(Cl)c2Cl)cc1Cl [PCB 180, 2,2′,3′,4,4′,5,5′-heptachlorobiphenyl]
Sprague-Dawley rats; [2]
  CED, Liver p53: 65.2 µg/g lipid
  CED-L, Liver p53: 30.0 µg/g lipid
Sprague-Dawley rats; [3]
  CED, Liver p53 Ser15: 361 µg/g lipid
  CED, Liver pChk2 Thr68: 337 µg/g lipid
  CED-L, Liver p53 Ser15: 124 µg/g lipid
  CED-L, Liver pChk2 Thr68: 98.2 µg/g lipid
Sprague-Dawley rats; [4]
  CED, Liver p53: 2240 µg/g lipid
  CED-L, Liver p53: 1053 µg/g lipid
Sprague-Dawley rats; [5]
  CED, Liver p53 Ser15: 438 µg/g lipid
  CED, Liver pChk2 Thr68: 382 µg/g lipid
  CED-L, Liver p53 Ser15: 411 µg/g lipid
  CED-L, Liver pChk2 Thr68: 165 µg/g lipid
Sprague-Dawley rats; F, model E4, controls vs high dose according to the fitted model, read-out: Maximum response, Liver p53
  Emax: 141%
Sprague-Dawley rats; females, controls vs high dose, fitted model, read-out: Liver p53, Maximum response
  Emax: 142%
Sprague-Dawley rats; females, controls vs high dose, fitted model, read-out: Liver p53 Ser15, Maximum response
  Emax: 181%
Sprague-Dawley rats; females, controls vs high dose, fitted model, read-out: Liver pChk2 Thr68, Maximum response
  Emax: 185%
Sprague-Dawley rats; F, model E5, controls vs high dose according to the fitted model, read-out: Maximum response, Liver p53 Ser15
  Emax: 181%
Sprague-Dawley rats; F, model E5, controls vs high dose according to the fitted model, read-out: Maximum response, Liver pChk2 Thr68
  Emax: 185%
Sprague-Dawley rats; [6]
  Liver p53, CED: 14.1 mg/kg bw
  Liver p53, CED-L: 5.89 mg/kg bw
  Liver p53 Ser15, CED: 79.2 mg/kg bw
  Liver p53 Ser15, CED-L: 19.5 mg/kg bw
  Liver pChk2 Thr68, CED: 72.9 mg/kg bw
  Liver pChk2 Thr68, CED-L: 31.5 mg/kg bw
Sprague-Dawley rats; [7]
  Liver p53 Ser15, CED (100%): 438 µg/g lipid
  Liver pChk2 Thr68, CED (100%): 382 µg/g lipid
Sprague-Dawley rats; [8]
  Liver p53, CED: 472 mg/kg bw
  Liver p53, CED-L: 210 mg/kg bw
  Liver p53 Ser15, CED: 101 mg/kg bw
  Liver p53 Ser15, CED-L: 93.0 mg/kg bw
  Liver pChk2 Thr68, CED: 81.1 mg/kg bw
  Liver pChk2 Thr68, CED-L: 41.8 mg/kg bw
Sprague-Dawley rats; [9]
  Liver p53, CED: 2240 µg/g lipid
  Liver p53, CED-L: 30000 ng/g lipid
[1]; [10]
  MoE, Liver p53: 25
  MoE, Spontanous locomotor activity: 0.438
  MoE, Liver retinol: 15.7
  MoE, Serum chlolesterol: 76.2
  MoE, Serum thyroxine: 97.5
  MoE, Serum triglycerids: 6.05
[1]; [11]
  MoE, Liver p53: 65.2
  MoE, Spontanous locomotor activity: 1.14
  MoE, Liver retinol: 40.9
  MoE, Serum chlolesterol: 199
  MoE, Serum thyroxine: 254
  MoE, Serum triglycerids: 15.8
[1]; [12]
  MoE, Liver p53: 316
  MoE, Spontanous locomotor activity: 5.53
  MoE, Liver retinol: 198
  MoE, Serum chlolesterol: 963
  MoE, Serum thyroxine: 1233
  MoE, Serum triglycerids: 76.5
[1]; human cohort Mother's milk
  MoE, Liver p53: 655
  MoE, Spontanous locomotor activity: 11.5
  MoE, Liver retinol: 410
  MoE, Serum chlolesterol: 1996
  MoE, Serum thyroxine: 2555
  MoE, Serum triglycerids: 159
[1]; [13]
  MoE, Liver p53: 3109
  MoE, Spontanous locomotor activity: 54.4
  MoE, Liver retinol: 1948
  MoE, Serum chlolesterol: 9472
  MoE, Serum thyroxine: 12124
  MoE, Serum triglycerids: 752
[1]; [14]
  MoE, Liver p53: 5396
  MoE, Spontanous locomotor activity: 94.4
  MoE, Liver retinol: 3381
  MoE, Serum chlolesterol: 16439
  MoE, Serum thyroxine: 21043
  MoE, Serum triglycerids: 1306
Liver enzymes; F, CES 5%
  CED, CYP3A1 mRNA: 6.75 µg/g lipid
  CED-L, CYP3A1 mRNA: 3.19 µg/g lipid
  CED, CYP2B1 mRNA: 12.4 µg/g lipid
  CED-L, CYP2B1 mRNA: 5.74 µg/g lipid
Liver enzymes; F, CES 10%
  CED, CYP3A1 mRNA: 13.5 µg/g lipid
  CED-L, CYP3A1 mRNA: 6.39 µg/g lipid
  CED, CYP2B1 mRNA: 15.5 µg/g lipid
  CED-L, CYP2B1 mRNA: 7.76 µg/g lipid
Liver enzymes; M, CES 5%
  CED, CYP3A1 mRNA: 5.88 µg/g lipid
  CED-L, CYP3A1 mRNA: 3.63 µg/g lipid
  CED, CYP2B1 mRNA: 1.52 µg/g lipid
  CED-L, CYP2B1 mRNA: 0.584 µg/g lipid
Liver enzymes; M, CES 10%
  CED, CYP3A1 mRNA: 11.8 µg/g lipid
  CED-L, CYP3A1 mRNA: 7.26 µg/g lipid
  CED, CYP2B1 mRNA: 2.15 µg/g lipid
  CED-L, CYP2B1 mRNA: 0.895 µg/g lipid
Liver enzymes; females, CES 5%
  CYP2B1 mRNA, CED: 1.70 mg/kg bw
  CYP2B1 mRNA, CED-L: 0.90 mg/kg bw
  CYP3A1 mRNA, CED: 1.50 mg/kg bw
  CYP3A1 mRNA, CED-L: 0.70 mg/kg bw
Liver enzymes; females, CES 10%
  CYP2B1 mRNA, CED: 2.20 mg/kg bw
  CYP2B1 mRNA, CED-L: 1.20 mg/kg bw
  CYP3A1 mRNA, CED: 2.90 mg/kg bw
  CYP3A1 mRNA, CED-L: 1.40 mg/kg bw
Liver enzymes; males, CES 5%
  CYP2B1 mRNA, CED: 0.70 mg/kg bw
  CYP2B1 mRNA, CED-L: 0.40 mg/kg bw
  CYP3A1 mRNA, CED: 1.40 mg/kg bw
  CYP3A1 mRNA, CED-L: 0.90 mg/kg bw
Liver enzymes; males, CES 10%
  CYP2B1 mRNA, CED: 1.00 mg/kg bw
  CYP2B1 mRNA, CED-L: 0.50 mg/kg bw
  CYP3A1 mRNA, CED: 2.90 mg/kg bw
  CYP3A1 mRNA, CED-L: 1.80 mg/kg bw
